# From patent US11041000B2, “Peptide inhibitors of interleukin-23 receptor and their use to treat inflammatory diseases” (priority 2019, dated 2021)
# Bridge positions count the residues as written; N and C are the ends. Square brackets hold non-standard residues; d marks the D form. Peptide text beside a SMILES is read from it. Trp(7-Me) = Cc1cccc2c(C[C@H](N)C(=O)O)c[nH]c12; Trp(2-Me) = Cc1[nH]c2ccccc2c1C[C@H](N)C(=O)O; 2Nal = N[C@@H](Cc1ccc2ccccc2c1)C(=O)O; AEF = NCCOc1ccc(C[C@H](N)C(=O)O)cc1; Cit = NC(=O)NCCC[C@H](N)C(=O)O; Pen = CC(C)(S)[C@H](N)C(=O)O; αMeK = C[C@](N)(CCCCN)C(=O)O; Aib = CC(C)(N)C(=O)O
# Experiments:
# Type in all cases: in vitro ADME
# [1] = Stability in simulated intestinal fluid (SIF); settings: simulated intestinal fluid with pancreatin, pH 6.8, 37° C., matrix is 100 fold dilution of standard SIF concentration; for half-life at 20 μM: read-out: SIF t½ (converted); for SIF t½: 20 μM
# [2] = Stability in human fecal homogenate; settings: 20% fecal homogenate (supernatant), pH 6.8, 20% human fecal homogenate, anaerobic, 37° C., read-out: t½: Human Feces anaerobic (converted)
# Protocol: (§1) Centrifuged the homogenate at 2800×g for 15 min. The supernatant is taken out and used for incubations. […] The final test compound concentration was 20 μM.
# [3] = Stability in cynomolgus monkey fecal homogenate; settings: 20% fecal homogenate (supernatant), pH 6.8, 20% cynomolgus monkey fecal homogenate, anaerobic, 37° C., read-out: t½: Monkey Feces anaerobic (converted)
# Protocol: as §1
# Stability in rat plasma = settings: both sexes, SD rat plasma, EDTA, 37° C., read-out: t½: Rat Plasma EDTA (converted)
half-life at 20 μM [1] [h],half-life at 20 μM [2] [h],half-life at 20 μM [3] [h],half-life at 20 μM (Stability in rat plasma) [h],SMILES,SIF t½ [1] [h]
16,12,15,> 24,CC(=O)NCCCC[C@H](NC(=O)[C@](C)(CCCCN)NC(=O)[C@H](Cc1ccc2ccccc2c1)NC(=O)[C@H](Cc1ccc(OCCN)cc1)NC(=O)[C@H]1NC(=O)[C@H](CCCNC(N)=O)NC(=O)[C@H](Cc2c[nH]c3c(C)cccc23)NC(=O)[C@H]([C@@H](C)O)NC(=O)[C@H](CC(N)=O)NC(=O)[C@@H](NC(C)=O)C(C)(C)SSC1(C)C)C(=O)N[C@@H](CC(N)=O)C(=O)NC(C)(C)C(=O)N[C@@H](C)C(N)=O [compound 342] (Ac-[Pen]NT[Trp(7-Me)][Cit][Pen][AEF][2Nal][αMeK]K(Ac)N[Aib]A-NH2; disulfide 1-6),
9,> 24,> 24,> 24,CC(=O)NCCCC[C@H](NC(=O)[C@](C)(CCCCN)NC(=O)[C@H](Cc1ccc2ccccc2c1)NC(=O)[C@H](Cc1ccc(OCCN)cc1)NC(=O)[C@H]1NC(=O)[C@H](CCCNC(N)=O)NC(=O)[C@H](Cc2c[nH]c3c(C)cccc23)NC(=O)[C@H]([C@@H](C)O)NC(=O)[C@H](CC(N)=O)NC(=O)[C@@H](NC(C)=O)C(C)(C)SSC1(C)C)C(=O)N[C@@H](CC(N)=O)C(=O)NC(C)(C)C(=O)N[C@H](CCCCN)C(N)=O [compound 344] (Ac-[Pen]NT[Trp(7-Me)][Cit][Pen][AEF][2Nal][αMeK]K(Ac)N[Aib][dK]-NH2; disulfide 1-6),
23,> 24,> 24,> 24,CC(=O)NCCCC[C@@H]1NC(=O)[C@H](Cc2c[nH]c3c(C)cccc23)NC(=O)[C@H]([C@@H](C)O)NC(=O)[C@H](C)NC(=O)[C@@H](NC(C)=O)C(C)(C)SSC(C)(C)[C@@H](C(=O)N[C@@H](Cc2ccc(OCCN)cc2)C(=O)N[C@@H](Cc2ccc3ccccc3c2)C(=O)N[C@@](C)(CCCCN)C(=O)N[C@@H](CCCCNC(C)=O)C(=O)N[C@@H](CC(N)=O)C(=O)N[C@H](CC(C)C)C(N)=O)NC1=O [compound 328] (Ac-[Pen]AT[Trp(7-Me)]K(Ac)[Pen][AEF][2Nal][αMeK]K(Ac)N[dL]-NH2; disulfide 1-6),
12,> 24,> 24,> 24,CC(=O)NCCCC[C@@H]1NC(=O)[C@H](Cc2c[nH]c3c(C)cccc23)NC(=O)[C@H]([C@@H](C)O)NC(=O)CNC(=O)[C@@H](NC(C)=O)C(C)(C)SSC(C)(C)[C@@H](C(=O)N[C@@H](Cc2ccc(OCCN)cc2)C(=O)N[C@@H](Cc2ccc3ccccc3c2)C(=O)N[C@@](C)(CCCCN)C(=O)N[C@@H](CCCCNC(C)=O)C(=O)N[C@@H](CC(N)=O)C(=O)N[C@H](CC(C)C)C(N)=O)NC1=O [compound 329] (Ac-[Pen]GT[Trp(7-Me)]K(Ac)[Pen][AEF][2Nal][αMeK]K(Ac)N[dL]-NH2; disulfide 1-6),
7,> 24,> 24,> 24,CC(=O)NCCCC[C@@H]1NC(=O)[C@H](Cc2c[nH]c3c(C)cccc23)NC(=O)[C@H]([C@@H](C)O)NC(=O)[C@H](CC(N)=O)NC(=O)[C@@H](NC(C)=O)C(C)(C)SSC(C)(C)[C@@H](C(=O)N[C@@H](Cc2ccc(OCCN)cc2)C(=O)N[C@@H](Cc2ccc3ccccc3c2)C(=O)N[C@@](C)(CCCCN)C(=O)N[C@@H](CCCCNC(C)=O)C(=O)N[C@@H](CO)C(=O)N[C@H](CCCCN)C(N)=O)NC1=O [compound 352],
,> 24,> 24,> 24,CC(=O)NCCCC[C@@H]1NC(=O)[C@H](Cc2c[nH]c3c(C)cccc23)NC(=O)[C@H]([C@@H](C)O)NC(=O)[C@H](CC(N)=O)NC(=O)[C@@H](NC(C)=O)C(C)(C)SSC(C)(C)[C@@H](C(=O)N[C@@H](Cc2ccc(OCCN)cc2)C(=O)N[C@@H](Cc2c(C)[nH]c3ccccc23)C(=O)N[C@@](C)(CCCCN)C(=O)N[C@@H](CCCCNC(C)=O)C(=O)N[C@@H](CC(N)=O)C(=O)N[C@H](CCCCN)C(N)=O)NC1=O [compound 353] (Ac-[Pen]NT[Trp(7-Me)]K(Ac)[Pen][AEF][Trp(2-Me)][αMeK]K(Ac)N[dK]-NH2; disulfide 1-6),24

SMILES,half-life at 20 μM [1] [h],half-life at 20 μM [2] [h],half-life at 20 μM [3] [h],half-life at 20 μM (Stability in rat plasma) [h],SIF t½ [1] [h]
COc1cccc2c(C[C@@H]3NC(=O)[C@H]([C@@H](C)O)NC(=O)[C@H](CC(N)=O)NC(=O)[C@@H](NC(C)=O)C(C)(C)SSC(C)(C)[C@@H](C(=O)N[C@@H](Cc4ccc(OCCN)cc4)C(=O)N[C@@H](Cc4ccc5ccccc5c4)C(=O)N[C@@](C)(CCCCN)C(=O)N[C@@H](CCCCNC(C)=O)C(=O)N[C@@H](CC(N)=O)C(=O)N[C@H](CCCCN)C(N)=O)NC(=O)[C@H](CCC(N)=O)NC3=O)c[nH]c12 [compound 297],,> 24,> 24,> 24,24
CC(=O)NCCCC[C@H](NC(=O)[C@](C)(CCCCN)NC(=O)[C@H](Cc1ccc2ccccc2c1)NC(=O)[C@H](Cc1ccc(OCCN)cc1)NC(=O)[C@H]1NC(=O)[C@H](CCCCNC(=O)CCN)NC(=O)[C@H](Cc2c[nH]c3c(C)cccc23)NC(=O)[C@H]([C@@H](C)O)NC(=O)[C@H](CC(N)=O)NC(=O)[C@@H](NC(C)=O)C(C)(C)SSC1(C)C)C(=O)N[C@@H](CC(N)=O)C(=O)N[C@H](CC(C)C)C(N)=O [compound 321],,> 24,> 24,> 24,24
CC(=O)NCCCC[C@H](NC(=O)[C@](C)(CCCCN)NC(=O)[C@H](Cc1ccc2ccccc2c1)NC(=O)[C@H](Cc1ccc(OCCN)cc1)NC(=O)[C@H]1NC(=O)[C@H](CCCCNC(=O)[C@H](C)N)NC(=O)[C@H](Cc2c[nH]c3c(C)cccc23)NC(=O)[C@H]([C@@H](C)O)NC(=O)[C@H](CC(N)=O)NC(=O)[C@@H](NC(C)=O)C(C)(C)SSC1(C)C)C(=O)N[C@@H](CC(N)=O)C(=O)N[C@H](CC(C)C)C(N)=O [compound 314],,> 24,> 24,> 24,24
CC(=O)NCCCC[C@H](NC(=O)[C@](C)(CCCCN)NC(=O)[C@H](Cc1ccc2ccccc2c1)NC(=O)[C@H](Cc1ccc(OCCN)cc1)NC(=O)[C@H]1NC(=O)[C@H](CCC(N)=O)NC(=O)[C@H](Cc2c[nH]c3ccc(C#N)cc23)NC(=O)[C@H]([C@@H](C)O)NC(=O)[C@H](CC(N)=O)NC(=O)[C@@H](NC(C)=O)C(C)(C)SSC1(C)C)C(=O)N[C@@H](CC(N)=O)C(=O)N[C@H](CCCCN)C(N)=O [compound 296],,> 24,> 24,> 24,24
CC(=O)NCCCC[C@H](NC(=O)[C@](C)(CCCCN)NC(=O)[C@H](Cc1ccc2ccccc2c1)NC(=O)[C@H](Cc1ccc(OCCN)cc1)NC(=O)[C@H]1NC(=O)[C@H](CCCCNC(=O)CC(C)C)NC(=O)[C@H](Cc2c[nH]c3c(C)cccc23)NC(=O)[C@H]([C@@H](C)O)NC(=O)[C@H](CC(N)=O)NC(=O)[C@@H](NC(C)=O)C(C)(C)SSC1(C)C)C(=O)N[C@@H](CC(N)=O)C(=O)N[C@H](CC(C)C)C(N)=O [compound 315],,> 24,> 24,> 24,24
